The assay deals with A/NJ/15/2007 (H1N1-H274Y). It counts as cell-based, influenza.

≈ marks a conversion by molar mass, not a printed value.

Regarding `Nc1ncnc2c([C@@H]3N[C@H](CO)[C@@H](O)[C@H]3O)c[nH]c12` [Compound 1, (2S,3S,4R,5R)-2-(4-Amino-5H-pyrrolo[3,2-d]pyrimidin-7-yl)-5-(hydroxymethyl) pyrrolidine-3,4-diol], the 50% effective concentration (EC50) was found to be 1.39 µg/mL (≈ 5.24 µM).

The term EC50 denotes the concentration giving half of the maximal effect. A high value points to weaker potency.

The record behind these values is patent US12508266B2 (priority 2010, dated 2025).
